Test results from patent US12492178B2, “Stable polymorph of R-MDMA HCl” (EMPATHBIO, INC., priority 2021, dated 2025).
Like-named read-outs stand apart in the source and are kept apart here.

Experiments:
[1] = background statement; cited from earlier work
[2] = Approximate solubility in various solvents at ambient temperature (aliquot addition, visual observation); type: physicochemical; settings: for solubility: ambient temperature
Description: Aliquots of various solvents were added to measured amounts of a Form I with agitation (typically sonication) at ambient temperature until complete dissolution was achieved, as judged by visual observation. If dissolution occurred after the addition of the first aliquot, values are reported as “>”.

[3] = pH of aqueous solution using pH test strips; type: physicochemical; settings: 10 mg/mL aqueous solution
[4] = Dynamic Vapor Sorption (DVS); type: physicochemical; settings: for Post-DVS crystalline form: XRPD of post-DVS solids
Description: Dynamic vapor sorption data were collected on a Surface Measurement System DVS Intrinsic instrument.
Samples were not dried prior to analysis. Sorption and desorption data were collected over a range from 5% to 95% RH at 10% RH increments under a nitrogen purge. The equilibrium criterion used for analysis was less than 0.0100% weight change in 5 minutes with a maximum equilibration time of 3 hours. Data were not corrected for the initial moisture content of the samples.

[5] = Particle size distribution (PSD); type: physicochemical
[6] = Dry milling, effect on crystallinity (XRPD); type: physicochemical; settings: 30 Hz for 3×10 minutes
Description: A dry milling experiment was conducted to investigate the effect on crystallinity.

[7] = Stable form screen from slurries in organic solvent (state by XRPD); type: physicochemical
[8] = Stable form screen from slurries in aqueous/organic mixtures at room temperature for 7 days (state by XRPD); type: physicochemical; settings: RT
[9] = Heating by DSC from RT to 200° C. and cooling to RT, XRPD of treated sample; type: physicochemical; settings: cooled down to RT
Description: An (R)-MDMA HCl Form 1 sample was heated by DSC from RT to 200° C. and cooled down to RT.

[10] = Stable form and polymorph screen, twenty-nine experiments (XRPD); type: physicochemical; settings: all samples of Example 3, XRPD
[11] = Relative humidity stressing (state by XRPD); settings: for Observations after RH stressing / State after RH stressing: 6 d

CNC(C)Cc1ccc2c(c1)OCO2.Cl (racemic) [hydrochloride salt of racemic MDMA]
Solubility in water (in words) [1]: soluble in water

CNC(C)Cc1ccc2c(c1)OCO2 (stereo not drawn) [MDMA, 3,4-Methylenedioxymethamphetamine]
Solubility in water (in words) [1]: insoluble in water

CN[C@H](C)Cc1ccc2c(c1)OCO2.Cl [R-MDMA HCl Form I, (R)-3,4-methylenedioxymethamphetamine HCl]
Approximate solubility at RT (in words) ([2]; ACN, DCM, and most alcohols, listed as R-MDMA HCl Form 1, HCl): good solubility in ACN, DCM, and most alcohols | solubility ([2]; Water, listed as R-MDMA HCl Form 1, HCl): >110000 µg/mL | Approximate solubility at RT (in words) ([2]; aqueous environments, HCl): The compound exhibited high solubility in aqueous environments, | Approximate solubility at RT (in words) ([2]; aqueous environments, listed as R-MDMA HCl Form 1, HCl): high solubility in aqueous environments | Approximate solubility at RT (in words) ([2]; most organic solvents tested, HCl): Lower solubility was observed in most organic solvents tested. | Approximate solubility at RT (in words) ([2]; most organic solvents tested, listed as R-MDMA HCl Form 1, HCl): Lower solubility was observed in most organic solvents tested | solubility ([2]; organic solvent or mixture, thermodynamic from solid, 1-BuOH, read-out: Solubility): 3000 µg/mL | solubility ([2]; organic solvent or mixture, thermodynamic from solid, 90:10 Acetone/Water, read-out: Solubility): > 76000 µg/mL | solubility ([2]; organic solvent or mixture, thermodynamic from solid, Acetone, read-out: Solubility): < 1000 µg/mL | solubility ([2]; organic solvent or mixture, thermodynamic from solid, CAN, read-out: Solubility): 7000 µg/mL | solubility ([2]; organic solvent or mixture, thermodynamic from solid, DCM, read-out: Solubility): 16000 µg/mL | solubility ([2]; organic solvent or mixture, thermodynamic from solid, EtOAc, read-out: Solubility): < 1000 µg/mL | solubility ([2]; organic solvent or mixture, thermodynamic from solid, EtOH, read-out: Solubility): 25000 µg/mL | solubility ([2]; organic solvent or mixture, thermodynamic from solid, Heptane, read-out: Solubility): < 1000 µg/mL | solubility ([2]; organic solvent or mixture, thermodynamic from solid, IPA, read-out: Solubility): 6000 µg/mL | solubility ([2]; organic solvent or mixture, thermodynamic from solid, MTBE, read-out: Solubility): < 1000 µg/mL | solubility ([2]; organic solvent or mixture, thermodynamic from solid, MeOH, read-out: Solubility): > 114000 µg/mL | solubility ([2]; organic solvent or mixture, thermodynamic from solid, MeOH/MTBE (5:95), read-out: Solubility): < 1000 µg/mL | solubility ([2]; organic solvent or mixture, thermodynamic from solid, MeOH/MTBE (10:90), read-out: Solubility): < 2000 µg/mL | solubility ([2]; organic solvent or mixture, thermodynamic from solid, MeOH/MTBE (20:80), read-out: Solubility): 3000 µg/mL | solubility ([2]; organic solvent or mixture, thermodynamic from solid, THF, read-out: Solubility): < 1000 µg/mL | solubility ([2]; organic solvent or mixture, thermodynamic from solid, p-dioxane, read-out: Solubility): < 1000 µg/mL | solubility ([2]; organic solvent or mixture, thermodynamic from solid, t-BuOH, read-out: Solubility): 1000 µg/mL | solubility ([2]; thermodynamic from solid, Water, read-out: Solubility): > 110000 µg/mL | pH of aqueous solution [3]: pH of a 10 mg/mL aqueous solution is approximately 6 using pH test | Water sorbed, equivalent moles ([4]; 5-85% RH): 0.04 moles water | DVS wt. gain ([4]; 5-85% RH, sorption, HCl): 0.28% wt. gain 5-85% RH | DVS wt. gain ([4]; 5-85% RH, sorption, listed as (R)-MDMA HCl Form I, HCl): 0.28% | DVS weight gain ([4]; 5-95% RH, sorption, listed as (R)-3,4-methylenedioxymethamphetamine HCl Form I, HCl): 5.28±0.02% | DVS wt. loss ([4]; 85-5% RH, desorption): 0.51% wt. loss 85-5% RH | Water sorbed, equivalent moles ([4]; 85-95% RH, per mole of salt): 0.7 mol water | DVS wt. gain ([4]; 85-95% RH, sorption): 5.00% | DVS weight loss ([4]; 95-5% RH, desorption, listed as (R)-3,4-methylenedioxymethamphetamine HCl Form I, HCl): 5.35±0.02% | DVS wt. loss ([4]; 95-85% RH, desorption): 4.84% wt. loss 95-85% RH | Post-DVS crystalline form ([4]; HCl): Post-DVS crystalline form was found to be Form I | Post-DVS crystalline form ([4]; listed as (R)-MDMA HCl Form I, HCl): consistent with Form I | Hygroscopicity (in words) ([4]; between 5% and 85% RH): low hygroscopicity | Hygroscopicity (in words) ([4]; between 85% and 95% RH): Significant hygroscopicity | Hysteresis on desorption ([4]; desorption 95-5% RH): virtually no hysteresis | PSD d10 [5]: 5.10 μm | PSD d50 [5]: 19.2 μm | PSD d90 [5]: 48.8 μm | State after dry milling [6]: Form I with no apparent decrease in crystallinity | State after slurry ([7]; 1-BuOH, RT, 14 d): Form I | State after slurry ([7]; 90:10 EtOAc/MeOH, RT, 14 d): Form I | State after slurry ([7]; ACN, RT, 14 d): Form I | State after slurry ([7]; DCM, RT, 14 d): Form I | State after slurry ([7]; EtOH, RT, 14 d): Form I | State after slurry ([7]; IPA, RT, 14 d): Form I | State after slurry ([7]; IPA, ~5° C., 14 d): Form I | State after slurry ([7]; MeOH/MTBE (10:90), RT, 5 d): Form I | State after slurry ([7]; t-BuOH, ~75° C., 7 d): Form I | State after slurry ([8]; THF/water 98:2 (aw 0.38)): Form I | State after slurry ([8]; acetone/water 98:2 (aw 0.35)): Form I | State after slurry ([8]; p-dioxane/water 95:5 (aw 0.40)): Form I | Crystalline state after heating [9]: Form I crystalline state | Form found in stable form and polymorph screen [10]: Form I was formed in each case | Observations after RH stressing ([11]; 75% RH): free-flowing solids, B/E | State after RH stressing ([11]; 75% RH): Form I | Observations after RH stressing ([11]; 90% RH): mostly free-flowing solids, some clumps, | State after RH stressing ([11]; 90% RH): Form I | Physical stability upon stressing ([11]; 97% RH for 6 days): exhibits physical stability | Observations after RH stressing ([11]; 97% RH): off-white fines, B/E, some deliquesence | State after RH stressing ([11]; 97% RH): Form I, PO
